Measured values: paper PMC5564600 (Oncotarget, 2017)

Assays:
Experiment in all cases: biochemical
Assay type in all cases: binding
panel of 442 kinases [1] = molecular target: T1, panel of 442 kinases (Homo sapiens, UniProt P57059); conditions: kinase SIK; for remaining activity at 1 µM: read-out: SIK (% of control at 1 µM)
T1 construct: purchased Ambit Biosciences (scanMAXX KINOMEscan)

panel of 442 kinases [2] = molecular target: T2, panel of 442 kinases (Homo sapiens, UniProt O00238); conditions: BMPR1B; for remaining activity at 1 µM: read-out: % of control at 1 µM
T2 construct: purchased Ambit Biosciences (scanMAXX KINOMEscan)

panel of 442 kinases [3] = molecular target: T3, panel of 442 kinases (Homo sapiens, UniProt Q9UF33); conditions: EPHA6; for remaining activity at 1 µM: read-out: % of control at 1 µM
T3 construct: purchased Ambit Biosciences (scanMAXX KINOMEscan)
T3 sequence (Q9UF33 23-1036): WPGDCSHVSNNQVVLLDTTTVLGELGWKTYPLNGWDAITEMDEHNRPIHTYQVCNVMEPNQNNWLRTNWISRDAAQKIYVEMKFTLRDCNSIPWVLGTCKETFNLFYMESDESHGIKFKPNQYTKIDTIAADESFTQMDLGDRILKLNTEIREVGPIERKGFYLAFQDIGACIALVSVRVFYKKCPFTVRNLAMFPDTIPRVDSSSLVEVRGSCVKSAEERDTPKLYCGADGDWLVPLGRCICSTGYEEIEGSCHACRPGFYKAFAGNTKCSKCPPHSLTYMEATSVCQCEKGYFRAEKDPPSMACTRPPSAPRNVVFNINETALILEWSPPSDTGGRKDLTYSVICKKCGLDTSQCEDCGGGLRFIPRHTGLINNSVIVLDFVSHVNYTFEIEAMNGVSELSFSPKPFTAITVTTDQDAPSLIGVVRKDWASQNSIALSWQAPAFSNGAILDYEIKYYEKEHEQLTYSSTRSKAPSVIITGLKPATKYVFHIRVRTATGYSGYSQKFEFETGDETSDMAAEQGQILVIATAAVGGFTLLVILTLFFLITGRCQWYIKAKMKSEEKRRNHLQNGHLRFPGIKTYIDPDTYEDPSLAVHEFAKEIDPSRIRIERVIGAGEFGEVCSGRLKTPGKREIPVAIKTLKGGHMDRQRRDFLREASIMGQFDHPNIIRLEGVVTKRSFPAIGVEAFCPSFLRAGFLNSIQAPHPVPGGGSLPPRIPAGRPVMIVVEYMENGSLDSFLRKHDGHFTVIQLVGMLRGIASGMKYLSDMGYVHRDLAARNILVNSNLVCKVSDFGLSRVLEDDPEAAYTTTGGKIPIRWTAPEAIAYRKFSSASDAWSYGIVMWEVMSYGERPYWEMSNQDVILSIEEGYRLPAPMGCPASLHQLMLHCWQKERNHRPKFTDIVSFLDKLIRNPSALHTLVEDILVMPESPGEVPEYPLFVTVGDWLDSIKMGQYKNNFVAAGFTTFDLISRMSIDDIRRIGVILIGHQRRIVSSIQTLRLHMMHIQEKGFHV

panel of 442 kinases [4] = molecular target: T4, panel of 442 kinases (Homo sapiens, UniProt Q92772); conditions: CDKL2; for remaining activity at 1 µM: read-out: % of control at 1 µM
T4 construct: purchased Ambit Biosciences (scanMAXX KINOMEscan)
T4 sequence (Q92772 1-493): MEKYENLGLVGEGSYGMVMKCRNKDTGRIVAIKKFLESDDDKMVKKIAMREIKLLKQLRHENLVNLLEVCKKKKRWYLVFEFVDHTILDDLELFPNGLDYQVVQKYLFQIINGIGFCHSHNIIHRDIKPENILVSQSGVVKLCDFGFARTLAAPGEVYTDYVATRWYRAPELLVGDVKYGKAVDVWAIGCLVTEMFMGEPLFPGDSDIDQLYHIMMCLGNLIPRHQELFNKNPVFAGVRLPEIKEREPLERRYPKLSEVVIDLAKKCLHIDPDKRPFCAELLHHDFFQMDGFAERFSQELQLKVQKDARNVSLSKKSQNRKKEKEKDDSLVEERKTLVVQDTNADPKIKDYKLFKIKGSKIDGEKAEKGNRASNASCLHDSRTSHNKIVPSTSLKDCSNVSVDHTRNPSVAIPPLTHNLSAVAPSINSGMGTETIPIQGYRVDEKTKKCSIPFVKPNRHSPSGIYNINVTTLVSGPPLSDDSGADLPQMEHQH

panel of 442 kinases [5] = molecular target: T5, panel of 442 kinases (Homo sapiens, UniProt Q8N752); conditions: CSNK1A1L; for remaining activity at 1 µM: read-out: % of control at 1 µM
T5 construct: purchased Ambit Biosciences (scanMAXX KINOMEscan)
T5 sequence (Q8N752 1-337): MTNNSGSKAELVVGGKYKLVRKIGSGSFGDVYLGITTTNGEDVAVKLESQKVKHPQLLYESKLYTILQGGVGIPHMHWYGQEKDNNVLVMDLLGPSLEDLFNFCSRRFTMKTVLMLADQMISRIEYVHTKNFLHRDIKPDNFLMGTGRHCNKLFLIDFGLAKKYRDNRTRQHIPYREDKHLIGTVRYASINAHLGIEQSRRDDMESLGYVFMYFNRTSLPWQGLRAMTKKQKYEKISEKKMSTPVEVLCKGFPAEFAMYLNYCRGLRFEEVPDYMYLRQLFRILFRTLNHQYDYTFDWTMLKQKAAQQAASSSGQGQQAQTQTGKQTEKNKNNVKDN

panel of 442 kinases [6] = molecular target: T6, panel of 442 kinases (Homo sapiens, UniProt Q9Y2H9); conditions: kinase MAST1; for remaining activity at 1 µM: read-out: % of control at 1 µM
T6 construct: purchased Ambit Biosciences (scanMAXX KINOMEscan)

panel of 442 kinases [7] = molecular target: T7, panel of 442 kinases (Homo sapiens, UniProt Q16566); conditions: CAMK4; for remaining activity at 1 µM: read-out: % of control at 1 µM
T7 construct: purchased Ambit Biosciences (scanMAXX KINOMEscan)
T7 sequence (Q16566 1-473): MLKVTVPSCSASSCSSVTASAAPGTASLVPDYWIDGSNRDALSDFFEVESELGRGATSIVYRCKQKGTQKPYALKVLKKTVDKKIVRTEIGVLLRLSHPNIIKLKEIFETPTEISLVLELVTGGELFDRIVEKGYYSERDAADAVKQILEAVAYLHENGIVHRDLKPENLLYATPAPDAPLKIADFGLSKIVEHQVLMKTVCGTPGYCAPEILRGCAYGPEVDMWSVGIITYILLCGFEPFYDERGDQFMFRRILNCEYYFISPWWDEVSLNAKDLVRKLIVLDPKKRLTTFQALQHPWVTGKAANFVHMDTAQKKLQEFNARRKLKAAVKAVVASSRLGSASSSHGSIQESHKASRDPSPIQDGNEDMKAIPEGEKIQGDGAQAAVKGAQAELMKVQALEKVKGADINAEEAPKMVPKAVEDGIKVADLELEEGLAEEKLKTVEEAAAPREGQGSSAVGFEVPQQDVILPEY

panel of 442 kinases [8] = molecular target: T8, panel of 442 kinases (Homo sapiens, UniProt Q05397); conditions: FAK; for remaining activity at 1 µM: read-out: % of control at 1 µM
T8 construct: purchased Ambit Biosciences (scanMAXX KINOMEscan)

[9] = 10 µM, read-out: % of control at 10 µM

T6 sequence (Q9Y2H9 whole entry): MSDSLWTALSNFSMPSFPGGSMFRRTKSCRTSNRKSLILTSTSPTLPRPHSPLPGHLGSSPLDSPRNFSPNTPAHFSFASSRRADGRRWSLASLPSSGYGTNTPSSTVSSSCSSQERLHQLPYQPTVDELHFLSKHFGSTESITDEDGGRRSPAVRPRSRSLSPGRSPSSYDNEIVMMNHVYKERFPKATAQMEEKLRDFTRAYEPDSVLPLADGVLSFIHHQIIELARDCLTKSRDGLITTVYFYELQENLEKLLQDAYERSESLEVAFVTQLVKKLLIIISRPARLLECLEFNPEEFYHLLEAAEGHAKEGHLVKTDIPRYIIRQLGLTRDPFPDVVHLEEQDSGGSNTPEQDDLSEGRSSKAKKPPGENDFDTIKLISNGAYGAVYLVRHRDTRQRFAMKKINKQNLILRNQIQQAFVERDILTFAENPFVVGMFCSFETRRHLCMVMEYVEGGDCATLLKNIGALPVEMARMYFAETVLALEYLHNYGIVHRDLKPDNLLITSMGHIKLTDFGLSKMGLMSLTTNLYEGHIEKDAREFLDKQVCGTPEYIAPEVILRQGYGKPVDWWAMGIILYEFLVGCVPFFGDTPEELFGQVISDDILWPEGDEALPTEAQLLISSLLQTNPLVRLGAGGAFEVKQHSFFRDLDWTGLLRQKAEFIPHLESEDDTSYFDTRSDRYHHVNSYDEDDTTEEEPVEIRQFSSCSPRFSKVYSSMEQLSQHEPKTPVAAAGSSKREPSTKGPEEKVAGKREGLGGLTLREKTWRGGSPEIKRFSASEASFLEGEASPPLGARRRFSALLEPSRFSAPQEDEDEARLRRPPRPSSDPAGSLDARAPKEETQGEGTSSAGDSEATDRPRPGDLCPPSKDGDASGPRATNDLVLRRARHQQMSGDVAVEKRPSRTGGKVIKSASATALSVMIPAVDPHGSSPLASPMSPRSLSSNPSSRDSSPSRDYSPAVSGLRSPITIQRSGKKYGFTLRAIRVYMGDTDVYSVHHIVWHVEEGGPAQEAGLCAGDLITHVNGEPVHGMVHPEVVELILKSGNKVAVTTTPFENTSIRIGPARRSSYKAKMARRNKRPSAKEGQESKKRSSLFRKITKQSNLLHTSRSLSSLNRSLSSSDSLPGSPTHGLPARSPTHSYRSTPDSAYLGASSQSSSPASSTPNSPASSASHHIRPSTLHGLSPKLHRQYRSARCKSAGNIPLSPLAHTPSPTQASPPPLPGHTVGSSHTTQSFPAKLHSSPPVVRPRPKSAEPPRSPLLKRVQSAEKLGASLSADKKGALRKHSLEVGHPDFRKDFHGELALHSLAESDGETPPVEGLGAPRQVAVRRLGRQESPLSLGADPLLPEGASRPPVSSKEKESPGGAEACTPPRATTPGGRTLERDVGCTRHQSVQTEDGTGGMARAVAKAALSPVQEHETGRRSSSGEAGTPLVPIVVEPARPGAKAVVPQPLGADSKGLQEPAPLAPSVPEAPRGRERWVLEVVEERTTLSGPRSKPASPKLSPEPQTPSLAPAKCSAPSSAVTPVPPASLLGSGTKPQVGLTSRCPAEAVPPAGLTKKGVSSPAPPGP
T8 sequence (Q05397 whole entry): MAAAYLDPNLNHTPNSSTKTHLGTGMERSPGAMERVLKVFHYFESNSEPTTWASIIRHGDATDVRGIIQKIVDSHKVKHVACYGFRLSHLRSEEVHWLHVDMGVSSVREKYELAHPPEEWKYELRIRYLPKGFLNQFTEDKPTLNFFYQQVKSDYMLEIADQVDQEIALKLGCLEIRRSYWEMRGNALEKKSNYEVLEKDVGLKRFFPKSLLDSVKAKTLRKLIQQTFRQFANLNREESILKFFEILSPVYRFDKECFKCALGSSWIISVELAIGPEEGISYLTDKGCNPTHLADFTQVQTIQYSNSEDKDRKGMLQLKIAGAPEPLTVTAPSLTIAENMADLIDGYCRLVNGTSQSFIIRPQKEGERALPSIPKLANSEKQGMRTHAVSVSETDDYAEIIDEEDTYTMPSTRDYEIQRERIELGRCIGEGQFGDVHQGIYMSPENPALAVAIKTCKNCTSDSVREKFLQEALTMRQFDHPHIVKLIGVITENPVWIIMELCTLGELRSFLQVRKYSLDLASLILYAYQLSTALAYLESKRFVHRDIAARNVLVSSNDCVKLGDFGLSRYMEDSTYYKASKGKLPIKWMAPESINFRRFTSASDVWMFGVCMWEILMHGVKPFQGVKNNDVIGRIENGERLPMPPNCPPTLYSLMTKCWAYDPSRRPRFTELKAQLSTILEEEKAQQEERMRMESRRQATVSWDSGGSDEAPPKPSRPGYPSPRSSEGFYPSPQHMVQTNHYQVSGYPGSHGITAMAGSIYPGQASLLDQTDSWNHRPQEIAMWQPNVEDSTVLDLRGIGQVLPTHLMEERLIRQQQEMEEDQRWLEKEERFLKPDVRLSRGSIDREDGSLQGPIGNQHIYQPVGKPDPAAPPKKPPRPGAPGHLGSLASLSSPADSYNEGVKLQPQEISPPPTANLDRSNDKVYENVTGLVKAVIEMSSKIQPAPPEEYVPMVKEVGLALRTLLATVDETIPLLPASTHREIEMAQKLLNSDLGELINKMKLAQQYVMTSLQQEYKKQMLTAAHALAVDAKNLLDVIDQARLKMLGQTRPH
T2 sequence (O00238 14-502): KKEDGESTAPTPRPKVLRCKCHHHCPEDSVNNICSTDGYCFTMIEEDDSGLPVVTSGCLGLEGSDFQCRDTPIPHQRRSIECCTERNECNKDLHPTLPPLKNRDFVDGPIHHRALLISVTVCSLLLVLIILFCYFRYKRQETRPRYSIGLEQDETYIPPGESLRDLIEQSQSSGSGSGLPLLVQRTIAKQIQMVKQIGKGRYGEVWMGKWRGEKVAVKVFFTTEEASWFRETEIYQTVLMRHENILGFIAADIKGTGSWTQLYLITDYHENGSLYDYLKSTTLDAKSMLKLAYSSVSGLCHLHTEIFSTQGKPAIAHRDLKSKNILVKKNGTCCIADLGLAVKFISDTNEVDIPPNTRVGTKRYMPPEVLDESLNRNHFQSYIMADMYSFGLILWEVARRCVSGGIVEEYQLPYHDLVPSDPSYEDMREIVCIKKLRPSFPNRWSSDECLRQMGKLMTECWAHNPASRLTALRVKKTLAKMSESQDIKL
T1 sequence (P57059 whole entry): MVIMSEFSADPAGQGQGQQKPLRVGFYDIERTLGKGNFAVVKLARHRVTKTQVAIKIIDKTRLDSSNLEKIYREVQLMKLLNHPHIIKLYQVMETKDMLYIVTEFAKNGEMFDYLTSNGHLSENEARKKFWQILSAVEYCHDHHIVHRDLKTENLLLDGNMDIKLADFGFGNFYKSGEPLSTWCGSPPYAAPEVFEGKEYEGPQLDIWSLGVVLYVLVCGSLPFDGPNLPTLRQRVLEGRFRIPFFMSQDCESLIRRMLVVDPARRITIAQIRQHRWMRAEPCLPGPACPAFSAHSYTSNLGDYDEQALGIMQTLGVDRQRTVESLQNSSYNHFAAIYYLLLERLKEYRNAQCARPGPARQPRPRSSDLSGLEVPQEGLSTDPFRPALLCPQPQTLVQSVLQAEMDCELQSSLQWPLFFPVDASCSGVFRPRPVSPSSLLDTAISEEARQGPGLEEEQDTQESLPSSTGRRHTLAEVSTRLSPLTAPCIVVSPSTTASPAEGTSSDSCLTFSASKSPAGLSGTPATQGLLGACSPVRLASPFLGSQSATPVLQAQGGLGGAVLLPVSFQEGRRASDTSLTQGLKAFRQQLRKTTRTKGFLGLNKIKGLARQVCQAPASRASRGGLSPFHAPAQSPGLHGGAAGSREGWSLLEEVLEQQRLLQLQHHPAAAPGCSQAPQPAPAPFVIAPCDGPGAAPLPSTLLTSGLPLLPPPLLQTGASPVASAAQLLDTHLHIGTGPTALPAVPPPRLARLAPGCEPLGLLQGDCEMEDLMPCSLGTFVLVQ

| Structure (SMILES) | remaining activity at 1 µM (panel of 442 kinases [1]) | remaining activity at 10 µM (panel of 442 kinases [1]; 10 µM, read-out: SIK (% of control at 10 µM)) | remaining activity at 1 µM (panel of 442 kinases [2]) | remaining activity at 10 µM (panel of 442 kinases [2]; [9]) | remaining activity at 1 µM (panel of 442 kinases [3]) | remaining activity at 10 µM (panel of 442 kinases [3]; [9]) | remaining activity at 1 µM (panel of 442 kinases [4]) | remaining activity at 10 µM (panel of 442 kinases [4]; [9]) | remaining activity at 1 µM (panel of 442 kinases [5]) | remaining activity at 10 µM (panel of 442 kinases [5]; [9]) | remaining activity at 1 µM (panel of 442 kinases [6]) | remaining activity at 10 µM (panel of 442 kinases [6]; [9]) | remaining activity at 1 µM (panel of 442 kinases [7]) | remaining activity at 10 µM (panel of 442 kinases [7]; [9]) | remaining activity at 1 µM (panel of 442 kinases [8]) | remaining activity at 10 µM (panel of 442 kinases [8]; [9]) |
| --- | --- | --- | --- | --- | --- | --- | --- | --- | --- | --- | --- | --- | --- | --- | --- | --- |
| Nc1cc(C(F)(F)F)c(-c2cc(N3CCOCC3)nc(N3CCOCC3)n2)cn1 [Buparlisib] | 100% | 100% | 100% | 100% | 93% | 100% | 66% | 100% | 100% | 100% | 53% | 73% | 89% | 100% | 100% | 100% |
| Cn1c(=O)n(-c2ccc(C(C)(C)C#N)cc2)c2c3cc(-c4cnc5ccccc5c4)ccc3ncc21 [Dactolisib, 2-methyl-2-[4-(3-methyl-2-oxo-8-quinolin-3-yl-2,3-dihydroimidazo[4,5-c]quinolin-1-yl)-phenyl] propionitrile] | 100% | – | 91% | – | 94% | – | 26% | – | 100% | – | 100% | – | – | – | 90% | – |
| COc1ncc(-c2ccc3nccc(-c4ccnnc4)c3c2)cc1NS(=O)(=O)c1ccc(F)cc1F [Omipalisib] | 100% | – | 87% | – | 100% | – | 90% | – | 100% | – | 100% | – | 100% | – | 94% | – |
| FC(F)c1nc2ccccc2n1-c1nc(N2CCOCC2)nc(N2CCOCC2)n1 [ZSTK474, 2-(difluoromethyl)-1-[4,6-di(4-morpholinyl)-1,3,5-triazin-2-yl]-1H-benzimidazole] | 100% | – | 94% | – | 88% | – | 100% | – | 100% | – | 100% | – | 92% | – | 90% | – |
